Columns and labels:
Format in all cases: in vivo
[1] = tested on: barnyardgrass (Echinochloa crus-galli); experiment: Test G Pre-Emergence Protocol; conditions: Echinochloa crus-galli, pre-emergence, 312 h, evaluated after 13 days; for pest or weed control at 15.625 g/ha: 15.625 g ai/ha, read-out: Barnyard grass damage rating (100=total damage to plant; 0=no damage to plant); for pest or weed control at 62.5 g/ha: 62.5 g ai/ha, 100=total damage to plant, 0=no damage to plant, read-out: plant damage rating, Barnyardgrass; for pest or weed control at 250 g/ha: 250 g ai/ha, read-out: Barnyardgrass damage rating (100=total damage to plant; 0=no damage to plant)
Summary of the method: (§1)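 Glasshouse pre-emergence test: soil-sown seeds, sprayed after 1 d at 15.625, 62.5 or 250 g/ha. Conditions 24/16° C day/night, 14 h light, 65% humidity, watering twice daily. Rating 13 d post-spray (100 = total damage).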

corn (Zea mays) [2] = experiment: Test G Pre-Emergence Protocol; conditions: Zea mays, pre-emergence, 312 h, evaluated after 13 days; for plant injury at 15.625 g/ha: 15.625 g ai/ha; for plant injury at 15.625 g/ha / plant injury at 250 g/ha: read-out: Corn damage rating (100=total damage to plant; 0=no damage to plant); for plant injury at 62.5 g/ha: 62.5 g ai/ha, 100=total damage to plant, 0=no damage to plant, read-out: plant damage rating, Corn; for plant injury at 250 g/ha: 250 g ai/ha
Summary of the method: as §1

[3] = tested on: giant foxtail (Setaria faberi); experiment: Test G Pre-Emergence Protocol; conditions: Setaria faberi, pre-emergence, 312 h, evaluated after 13 days; for pest or weed control at 15.625 g/ha: 15.625 g ai/ha; for pest or weed control at 15.625 g/ha / pest or weed control at 250 g/ha: read-out: Foxtail, Giant damage rating (100=total damage to plant; 0=no damage to plant); for pest or weed control at 62.5 g/ha: 62.5 g ai/ha, 100=total damage to plant, 0=no damage to plant, read-out: plant damage rating, Foxtail, Giant; for pest or weed control at 250 g/ha: 250 g ai/ha
Summary of the method: as §1

[4] = tested on: ivy-leaved morning glory (Ipomoea hederacea); experiment: Test G Pre-Emergence Protocol; conditions: Ipomoea, pre-emergence, 312 h, evaluated after 13 days; for pest or weed control at 15.625 g/ha: 15.625 g ai/ha, read-out: Morning-glory, Ivy-leaved damage rating (100=total damage to plant; 0=no damage to plant); for pest or weed control at 62.5 g/ha: 62.5 g ai/ha, 100=total damage to plant, 0=no damage to plant, read-out: plant damage rating, Morningglory, Ivy-leaved; for pest or weed control at 250 g/ha: 250 g ai/ha, read-out: Morningglory, Ivy-leaved damage rating (100=total damage to plant; 0=no damage to plant)
Summary of the method: as §1

[5] = tested on: redroot pigweed (Amaranthus retroflexus); experiment: Test G Pre-Emergence Protocol; conditions: Amaranthus retroflexus, pre-emergence, 312 h, evaluated after 13 days; for pest or weed control at 15.625 g/ha: 15.625 g ai/ha; for pest or weed control at 15.625 g/ha / pest or weed control at 250 g/ha: read-out: Pigweed, Redroot damage rating (100=total damage to plant; 0=no damage to plant); for pest or weed control at 62.5 g/ha: 62.5 g ai/ha, 100=total damage to plant, 0=no damage to plant, read-out: plant damage rating, Pigweed, Redroot; for pest or weed control at 250 g/ha: 250 g ai/ha
Summary of the method: as §1

[6] = tested on: velvetleaf (Abutilon theophrasti); experiment: Test G Pre-Emergence Protocol; conditions: Abutilon theophrasti, pre-emergence, 312 h, evaluated after 13 days; for pest or weed control at 15.625 g/ha: 15.625 g ai/ha; for pest or weed control at 15.625 g/ha / pest or weed control at 250 g/ha: read-out: Velvetleaf damage rating (100=total damage to plant; 0=no damage to plant); for pest or weed control at 62.5 g/ha: 62.5 g ai/ha, 100=total damage to plant, 0=no damage to plant, read-out: plant damage rating, Velvetleaf; for pest or weed control at 250 g/ha: 250 g ai/ha
Summary of the method: as §1

[7] = tested on: barnyardgrass (Echinochloa crus-galli); experiment: Test G Post-Emergence Protocol; conditions: Echinochloa crus-galli, post-emergence, 312 h; for pest or weed control at 15.625 g/ha: 15.625 g ai/ha, evaluated after 13 days (100=total damage to plant; 0=no damage to plant), read-out: Barnyardgrass damage rating; for pest or weed control at 62.5 g/ha: 62.5 g ai/ha, read-out: Barnyardgrass damage rating (100=total damage to plant; 0=no damage to plant); for pest or weed control at 62.5 g/ha / pest or weed control at 250 g/ha: evaluated after 13 days; for pest or weed control at 250 g/ha: 250 g ai/ha, read-out: damage to plant, Barnyardgrass (100=total damage to plant; 0=no damage to plant)
Summary of the method: (§2)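 Eight days post-sowing, plants received a spray of test compound (acetone/water 50:50, 0.5% Tween 20) at 15.625, 62.5 or 250 g/ha. Glasshouse regime thereafter: 24/16 °C, 14 h light, 65% humidity. Assessment after 13 days on a 0–100 damage scale.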

corn (Zea mays) [8] = experiment: Test G Post-Emergence Protocol; conditions: Zea mays, post-emergence, 312 h; for plant injury at 15.625 g/ha: 15.625 g ai/ha, evaluated after 13 days (100=total damage to plant; 0=no damage to plant), read-out: Corn damage rating; for plant injury at 62.5 g/ha: 62.5 g ai/ha, read-out: Corn damage rating (100=total damage to plant; 0=no damage to plant); for plant injury at 62.5 g/ha / plant injury at 250 g/ha: evaluated after 13 days; for plant injury at 250 g/ha: 250 g ai/ha, read-out: damage to plant, Corn (100=total damage to plant; 0=no damage to plant)
Summary of the method: as §2

[9] = tested on: giant foxtail (Setaria faberi); experiment: Test G Post-Emergence Protocol; conditions: Setaria faberi, post-emergence, 312 h; for pest or weed control at 15.625 g/ha: 15.625 g ai/ha, evaluated after 13 days (100=total damage to plant; 0=no damage to plant), read-out: Foxtail, Giant damage rating; for pest or weed control at 62.5 g/ha: 62.5 g ai/ha, read-out: Foxtail, Giant damage rating (100=total damage to plant; 0=no damage to plant); for pest or weed control at 62.5 g/ha / pest or weed control at 250 g/ha: evaluated after 13 days; for pest or weed control at 250 g/ha: 250 g ai/ha, read-out: damage to plant, Foxtail, Giant (100=total damage to plant; 0=no damage to plant)
Summary of the method: as §2

[10] = tested on: ivy-leaved morning glory (Ipomoea hederacea); experiment: Test G Post-Emergence Protocol; conditions: Ipomoea, post-emergence, 312 h; for pest or weed control at 15.625 g/ha: 15.625 g ai/ha, evaluated after 13 days (100=total damage to plant; 0=no damage to plant), read-out: Morningglory, Ivy-leaved damage rating; for pest or weed control at 62.5 g/ha: 62.5 g ai/ha, read-out: Morningglory, Ivy-leaved damage rating (100=total damage to plant; 0=no damage to plant); for pest or weed control at 62.5 g/ha / pest or weed control at 250 g/ha: evaluated after 13 days; for pest or weed control at 250 g/ha: 250 g ai/ha, read-out: damage to plant, Morningglory, Ivy-leaved (100=total damage to plant; 0=no damage to plant)
Summary of the method: as §2

[11] = tested on: redroot pigweed (Amaranthus retroflexus); experiment: Test G Post-Emergence Protocol; conditions: Amaranthus retroflexus, post-emergence, 312 h; for pest or weed control at 15.625 g/ha: 15.625 g ai/ha, evaluated after 13 days (100=total damage to plant; 0=no damage to plant), read-out: Pigweed, Redroot damage rating; for pest or weed control at 62.5 g/ha: 62.5 g ai/ha, read-out: Pigweed, Redroot damage rating (100=total damage to plant; 0=no damage to plant); for pest or weed control at 62.5 g/ha / pest or weed control at 250 g/ha: evaluated after 13 days; for pest or weed control at 250 g/ha: 250 g ai/ha, read-out: damage to plant, Pigweed, Redroot (100=total damage to plant; 0=no damage to plant)
Summary of the method: as §2

[12] = tested on: velvetleaf (Abutilon theophrasti); experiment: Test G Post-Emergence Protocol; conditions: Abutilon theophrasti, post-emergence, 312 h; for pest or weed control at 15.625 g/ha: 15.625 g ai/ha, evaluated after 13 days (100=total damage to plant; 0=no damage to plant), read-out: Velvetleaf damage rating; for pest or weed control at 62.5 g/ha: 62.5 g ai/ha, read-out: Velvetleaf damage rating (100=total damage to plant; 0=no damage to plant); for pest or weed control at 62.5 g/ha / pest or weed control at 250 g/ha: evaluated after 13 days; for pest or weed control at 250 g/ha: 250 g ai/ha, read-out: damage to plant, Velvetleaf (100=total damage to plant; 0=no damage to plant)
Summary of the method: as §2

Compound	pest or weed control at 15.625 g/ha [1]	pest or weed control at 62.5 g/ha [1]	pest or weed control at 250 g/ha [1]	plant injury at 15.625 g/ha (corn (Zea mays) [2])	plant injury at 62.5 g/ha (corn (Zea mays) [2])	plant injury at 250 g/ha (corn (Zea mays) [2])	pest or weed control at 15.625 g/ha [3]	pest or weed control at 62.5 g/ha [3]	pest or weed control at 250 g/ha [3]	pest or weed control at 15.625 g/ha [4]	pest or weed control at 62.5 g/ha [4]	pest or weed control at 250 g/ha [4]	pest or weed control at 15.625 g/ha [5]	pest or weed control at 62.5 g/ha [5]	pest or weed control at 250 g/ha [5]	pest or weed control at 15.625 g/ha [6]	pest or weed control at 62.5 g/ha [6]	pest or weed control at 250 g/ha [6]	pest or weed control at 15.625 g/ha [7]	pest or weed control at 62.5 g/ha [7]	also measured
CN1C[C@@H](c2ccc(C(F)(F)F)cc2)[C@H](C(=O)Nc2csc(C(F)(F)F)n2)C1=O (racemic) [Compound 1587]	0%	0%	0%	0%	10%	0%	0%	0%	0%	0%	0%	0%	0%	0%	10%	0%	0%	0%	0%	20%	pest or weed control at 250 g/ha [7]: 40%; plant injury at 15.625 g/ha (corn (Zea mays) [8]): 0%; plant injury at 62.5 g/ha (corn (Zea mays) [8]): 0%; plant injury at 250 g/ha (corn (Zea mays) [8]): 0%; pest or weed control at 15.625 g/ha [9]: 0%; pest or weed control at 62.5 g/ha [9]: 20%; pest or weed control at 250 g/ha [9]: 60%; pest or weed control at 15.625 g/ha [10]: 0%; pest or weed control at 62.5 g/ha [10]: 0%; pest or weed control at 250 g/ha [10]: 40%; pest or weed control at 15.625 g/ha [11]: 0%; pest or weed control at 62.5 g/ha [11]: 10%; pest or weed control at 250 g/ha [11]: 70%; pest or weed control at 15.625 g/ha [12]: 0%; pest or weed control at 62.5 g/ha [12]: 0%; pest or weed control at 250 g/ha [12]: 0%
CN1C[C@H](c2ccc(C(F)(F)F)cc2)[C@@H](C(=O)Nc2ccc(C(F)(F)F)cc2F)C1=O (racemic) [Compound 1426]	0%	10%	20%	0%	0%	0%	0%	50%	70%	0%	0%	0%	0%	0%	0%	0%	0%	0%	0%	0%	pest or weed control at 250 g/ha [7]: 20%; plant injury at 15.625 g/ha (corn (Zea mays) [8]): 10%; plant injury at 62.5 g/ha (corn (Zea mays) [8]): 0%; plant injury at 250 g/ha (corn (Zea mays) [8]): 10%; pest or weed control at 15.625 g/ha [9]: 0%; pest or weed control at 62.5 g/ha [9]: 0%; pest or weed control at 250 g/ha [9]: 40%; pest or weed control at 15.625 g/ha [10]: 0%; pest or weed control at 62.5 g/ha [10]: 0%; pest or weed control at 250 g/ha [10]: 0%; pest or weed control at 15.625 g/ha [11]: 0%; pest or weed control at 62.5 g/ha [11]: 10%; pest or weed control at 250 g/ha [11]: 10%; pest or weed control at 15.625 g/ha [12]: 0%; pest or weed control at 62.5 g/ha [12]: 0%; pest or weed control at 250 g/ha [12]: 0%

Source: patent publication US12077503B2, “Substituted cyclic amides and their use as herbicides” (FMC CORPORATION, priority 2015, dated 2024)
